From patent publication EP0042348A1, “Olivacine derivatives and their therapeutical use” (priority 1980, dated 1981)
Read-outs that look alike come from different tables or passages of the source.

What was measured:
leucémie L 1210 = experiment: Antitumour effect in DBA/2 mice inoculated i.p. with 10^5 L1210 leukaemia cells, single i.p. injection 24 h later; format: in vivo, souris; conditions: for propriétés antitumorales: change on hydroxylation at position 10 of the named parent; for effet thérapeutique antitumoral: change on quaternisation; for propriétés antitumorales chez l'animal (facteur d'accroissement): fold increase on methoxylation at position 10 of the named parent
Text: (§1) En pratique, on a utilisé des souris ayant reçu par voie intrapéritonéale un inoculum de cellules de leucémie L 1210 et ayant été, pour la moitié d'entre elles, soumises 24 heures après ladite inoculation tumorale à une injection intrapéritonéale d'une dose unique de l'un des composés à tester; l'autre moitié des souris a reçu une injection d'un volume identique d'un solvant inactif et servait de série témoin. On a réparti les souris au hasard dans chaque série expérimentale. Une première expérimentation de routine a permis de déterminer la mortalité par toxicité et de fixer ainsi les doses infra-létales.
Conformément à la convention en usage dans ce domaine, on considérait comme guéris les animaux qui survivaient plus de 45 jours après l'inoculation de cellules tumorales.
On a calculé le taux de survie à partir d'une analyse statistique des résultats expérimentaux, par comparaison avec les résultats obtenus avec la série témoin, selon les méthodes bien connues de Mann-Whitey et de Wilcoxon; le pourcentage de cellules leucémiques tuées par le traitement réalisé était calculé par la méthode décrite par H.E.Skipper et coll. dans les articles cités plus haut, en prenant pour base, suivant le cas, soit l'augmentation de la survie moyenne en l'absence de survivants soit le pourcentage de survivants.
[…] Après 24 heures, on a fait à une moitié de ces souris une injection unique par voie intrapéritonéale d'une dose variable du composé respectif à tester (éventuellement mis au préalable sous la forme de l'un de ses sels hydrosolubles, si nécessaire), tandis qu'on injectait par la même voie à l'autre moitié des souris un même volume de solvant; cette dernière moitié du groupe de souris servait donc de série témoin. On a réparti les souris au hasard dans chaque série expérimentale.

[1] = Toxicity in mice after a single i.p. injection (maximal never-lethal dose); format: in vivo, souris; conditions: for DL0 (Dose maximale jamais mortelle): mice; for toxicités générales (facteur d'augmentation): change on hydroxylation at position 10 of the named parent; for DL0 (i.p.): as printed in the compound cell of the dose-response table; for augmentation de la toxicité (facteur): fold increase on quaternisation
Text: as §1
On a ainsi pu déterminer la mortalité par toxicité sous l'effet d'une injection unique de l'un des composés à différentes doses (doses infra-létales DL 50 et DL 100) et évaluer le taux de survie du groupe d'animaux auxquels on n'avait injecté qu'une dose infra-létale d'un composé selon l'invention.
Pour l'évaluation de l'activité thérapeutique des composés selon l'invention, on a exprimé les doses desdits composés en les rapportant à la dose infra-létale 30 jours, que l'on a posée égale à 1. Cette dose infra-létale s'est en effet avérée plus facile à déterminer pour les composés de l'invention que la DL 10, dont elle est d'ailleurs très voisine et qui est habituellement prise comme référence pour l'évaluation de l'activité thérapeutique de composés à effet antitumoral (voir H.E. Skipper et coll., ouvrages cités).

cellules L1210 = experiment: In vitro growth inhibition of L1210 cells (48 h culture); conditions: for IC50: read-out: DI50 (Dose qui réduit de 50 % la croissance des cellules L1210); for diminution de la cytotoxicité (facteur): fold decrease on quaternisation, versus the non-quaternised base
[2] = dose 0,8 of DL0, single i.p., ILS = T/C x 100
[3] = dose 0,1 of DL0, controls 9,2 days, 15 mice
[4] = dose 0,02 of DL0, controls 9,7 ± 0,9 days, 10 mice
[5] = dose 0,02 of DL0, controls 9,2 days, 15 mice
[6] = dose 0,5 of DL0, controls 9,2 days, 15 mice
[7] = dose 1 of DL0, controls 9,7 ± 0,9 days, 10 mice
[8] = dose 1 of DL0, controls 9,2 days, 15 mice
[9] = dose 0,01 of DL0, controls 9,3 ± 0,5 days, 15 mice
[10] = dose 0,1 of DL0, controls 9,3 ± 0,5 days, 15 mice
[11] = dose 0,01 of DL0, controls 9,7 ± 0,9 days, 10 mice
[12] = dose 0,05 of DL0, controls 9,3 ± 0,5 days, 15 mice
[13] = dose 0,5 of DL0, controls 9,3 ± 0,5 days, 15 mice
[14] = dose 0,5 of DL0, controls 9,7 ± 0,9 days, 10 mice
[15] = dose 1 of DL0, controls 9,3 ± 0,5 days, 15 mice
[16] = dose 0,005 of DL0, controls 9,3 ± 0,5 days, 15 mice
[17] = versus the non-quaternised base

Compound: Cc1nccc2c(C)c3[nH]c4ccc(O)cc4c3cc12 [10-hydroxy olivacine]
- ILS (leucémie L 1210; [2]): 139%
- DL0 (Dose maximale jamais mortelle) [1]: 50 mg/kg
- IC50 (cellules L1210; Mus musculus, L1210, 48 h): 20 nM

Compound: Cc1nccc2c(C)c3[nH]c4ccccc4c3cc12 [olivacine]
- propriétés antitumorales (leucémie L 1210): ne modifie que peu
- effet thérapeutique antitumoral (leucémie L 1210): disparition de l'effet thérapeutique antitumoral
- propriétés antitumorales chez l'animal (facteur d'accroissement) (leucémie L 1210): 1,3
- toxicités générales (facteur d'augmentation) [1]: 5

Compound: Cc1nccc2c(C)c3[nH]c4ccc(O)cc4c3cc12 [10-hydroxy olivacine (acétate)]
- ILS (leucémie L 1210; [3]): non significatif
- survie moyenne en jours des souris traitées (leucémie L 1210; [3]): 10,9 jours
- survivants (leucémie L 1210; [3]): 0/15
- ILS (leucémie L 1210; [4]): non significatif
- survie moyenne en jours des souris traitées (leucémie L 1210; [4]): 10,5 ± 0,8 jours
- survivants (leucémie L 1210; [4]): 0/10
- ILS (leucémie L 1210; [5]): non significatif
- survie moyenne en jours des souris traitées (leucémie L 1210; [5]): 9,6 jours
- survivants (leucémie L 1210; [5]): 0/15
- ILS (leucémie L 1210; [6]): non significatif
- survie moyenne en jours des souris traitées (leucémie L 1210; [6]): 12,1 jours
- survivants (leucémie L 1210; [6]): 0/15
- % de cellules tumorales tuées (leucémie L 1210; [7]): 98,98%
- ILS (leucémie L 1210; [7]): 148%
- survie moyenne en jours des souris traitées (leucémie L 1210; [7]): 14,4 ± 1,3 jours
- survivants (leucémie L 1210; [7]): 2/10
- ILS (leucémie L 1210; [8]): non significatif
- survie moyenne en jours des souris traitées (leucémie L 1210; [8]): 11,8 jours
- survivants (leucémie L 1210; [8]): 0/15
- DL0 (i.p.) [1]: 10-hydroxy olivacine (acétate) DL0(i.p.) = 50 mg

Compound: COc1ccc2[nH]c3c(C)c4ccnc(C)c4cc3c2c1 [10-méthoxy olivacine, reference compound]
- ILS (leucémie L 1210; dose 0,66 of DL0, single i.p., ILS = T/C x 100): 147%
- DL0 (Dose maximale jamais mortelle) [1]: 150 mg/kg
- IC50 (cellules L1210; Mus musculus, L1210, 48 h): 1090 nM

Compound: CCN(CC)CC[n+]1ccc2c(C)c3[nH]c4ccc(O)cc4c3cc2c1C [4-β-diéthylaminoéthyl 10-OH olivacinium (acétate)]
- % de cellules tumorales tuées (leucémie L 1210; [9]): 99%
- ILS (leucémie L 1210; [9]): 128%
- survie moyenne en jours des souris traitées (leucémie L 1210; [9]): 11,9 ± 1,1 jours
- survivants (leucémie L 1210; [9]): 0/15
- % de cellules tumorales tuées (leucémie L 1210; [10]): 99,997%
- ILS (leucémie L 1210; [10]): 162%
- survie moyenne en jours des souris traitées (leucémie L 1210; [10]): 15,1 ± 1,4 jours
- survivants (leucémie L 1210; [10]): 0/15
- % de cellules tumorales tuées (leucémie L 1210; [11]): 97%
- ILS (leucémie L 1210; [11]): 120%
- survie moyenne en jours des souris traitées (leucémie L 1210; [11]): 11,6 ± 1,1 jours
- survivants (leucémie L 1210; [11]): 0/10
- % de cellules tumorales tuées (leucémie L 1210; [12]): 99,8%
- ILS (leucémie L 1210; [12]): 136%
- survie moyenne en jours des souris traitées (leucémie L 1210; [12]): 12,7 ± 0,4 jours
- survivants (leucémie L 1210; [12]): 1/15
- % de cellules tumorales tuées (leucémie L 1210; [13]): ≃99,999%
- ILS (leucémie L 1210; [13]): 240%
- survie moyenne en jours des souris traitées (leucémie L 1210; [13]): 22,3 ± 4,4 jours
- survivants (leucémie L 1210; [13]): 1/15
- % de cellules tumorales tuées (leucémie L 1210; [14]): 99,98%
- ILS (leucémie L 1210; [14]): 150%
- survie moyenne en jours des souris traitées (leucémie L 1210; [14]): 14,5 ± 2 jours
- survivants (leucémie L 1210; [14]): 0/10
- ILS (leucémie L 1210; [2]): 182%
- survivants sur 15 (leucémie L 1210; dose 0,8 of DL0, single i.p., out of 15 mice): 4
- % de cellules tumorales tuées (leucémie L 1210; [15]): ≃99,999%
- ILS (leucémie L 1210; [15]): 182%
- survie moyenne en jours des souris traitées (leucémie L 1210; [15]): 16,9 ± 3,7 jours
- survivants (leucémie L 1210; [15]): 4/15
- % de cellules tumorales tuées (leucémie L 1210; [16]): 99%
- ILS (leucémie L 1210; [16]): 127%
- survie moyenne en jours des souris traitées (leucémie L 1210; [16]): 11,8 ± 0,8 jours
- survivants (leucémie L 1210; [16]): 0/15
- DL0 (i.p.) [1]: 4-β -diéthyl-aminoéthyl 10-hydroxy olivacinium (acétate) DL0 (i.p.) = 100 mg
- DL0 (Dose maximale jamais mortelle) [1]: 125 mg/kg
- IC50 (cellules L1210; Mus musculus, L1210, 48 h): 236 nM

Compound: Acétate de 4-méthyl olivacinium
- propriétés antitumorales (leucémie L 1210): fait par contre apparaître des propriétés antitumorales
- propriétés antitumorales chez l'animal (facteur d'accroissement) (leucémie L 1210): 1,7
- toxicités générales (facteur d'augmentation) [1]: ne varient pas
- augmentation de la toxicité (facteur) [1, 17]: 3,3
- diminution de la cytotoxicité (facteur) (cellules L1210): 1,4
- augmentation de la cytotoxicité (facteur) (cellules L1210; fold increase on hydroxylation at position 10 of the named parent): 4

Compound: Acétate de 4-méthyl 10-méthoxy olivacinium
- augmentation de la toxicité (facteur) [1, 17]: 1,5
- diminution de la cytotoxicité (facteur) (cellules L1210): 1,3

Compound: Acétate de 4-méthyl 10-hydroxy olivacinium
- effet thérapeutique antitumoral (leucémie L 1210): n'est pas modifiée
- ILS (leucémie L 1210; dose 1 of DL0, single i.p., ILS = T/C x 100): 155%
- diminution de la toxicité (facteur) ([1]; fold decrease on quaternisation, versus the non-quaternised base): 2
- DL0 (Dose maximale jamais mortelle) [1]: 100 mg/kg
- diminution de la cytotoxicité (facteur) (cellules L1210): 28,1
- diminution de la cytotoxicité (facteur) (cellules L1210; listed as 10-hydroxy olivacine quaternarisée): ~30
- IC50 (cellules L1210; L1210 cells, versus controls, after 48 h of culture): 562 nM
